Read-outs that look alike come from different tables or passages of the source.
Test system: HBV rcDNA
Assay: HepDE19 assay with bDNA quantitation of HBV rcDNA
Format: cell-based, hepatitis B virus
Procedure: HepDE19 Assay with bDNA Quantitation of HBV rcDNA:
HepDE19 cell culture system is a HepG2 (human hepatocarcinoma) derived cell line that supports HBV DNA replication and cccDNA formation in a tetracycline (Tet)-regulated manner and produces HBV rcDNA and a detectable reporter molecule dependent on the production and maintenance of cccDNA (Guo, et al., 2007, J. Virol. 81:12472-12484).
HepDE19 (50,000 cells/well) were plated in 96-well collagen-coated tissue-culture treated microtiter plates in DMEM/F12 medium supplemented with 10% fetal bovine serum, 1% penicillin-streptomycin and 1 μg/mL tetracycline and incubated in a humidified incubator at 37° C. and 5% CO2 overnight. Next day, the cells were switched to fresh medium without tetracycline and incubated for 4 hours at 37° C. and 5% CO2. The cells were treated with fresh Tet-free medium with compounds at concentrations starting at 25 μM and a serial, ½ log, 8-point, titration series in duplicate. The final DMSO concentration in the assay was 0.5%. The plates were incubated for 7 days in a humidified incubator at 37° C. and 5% CO2. Following a 7 day-incubation, the level of rcDNA present in the inhibitor-treated wells was measured using a Quantigene 2.0 bDNA assay kit (Affymetrix, Santa Clara, Calif.) with HBV specific custom probe set and manufacturers instructions. Concurrently, the effect of compounds on cell viability was assessed using replicate plates, plated at a density of 5,000 cells/well and incubated for 4 days, to determine the ATP content as a measure of cell viability using the cell-titer glo reagent (CTG; Promega Corporation, Madison, Wis.) as per manufacturer's instructions. The plates were read using a Victor luminescence plate reader (PerkinElmer Model 1420 Multilabel counter) and the relative luminescence units (RLU) data generated from each well was calculated as % inhibition of the untreated control wells and analyzed using XL-Fit module in Microsoft Excel to determine EC50 and EC90 (bDNA) and CC50 (CTG) values using a 4-parameter curve fitting algorithm.
Representative compounds of the invention were tested for their abilities to inhibit formation of relaxed circular DNA (rcDNA) in a HepDE19 assay, as described elsewhere herein.

[1] = Hepatitis B virus, HepDE19, 168 h, read-out: DE-19 bDNA EC50 (μM), HepDE19 cells, Tet-free medium, 7 day-incubation, rcDNA measured by Quantigene 2.0 bDNA assay, top concentration 25 μM
[2] = Hepatitis B virus, HepDE19, 168 h, HepDE19 cells, Tet-free medium, 7 day-incubation, rcDNA measured by Quantigene 2.0 bDNA assay, top concentration 25 μM, read-out: DE-19 bDNA EC50
[3] = read-out: DE-19 bDNA EC50, HepDE19 cells, Tet-free medium, 7 day-incubation, rcDNA measured by Quantigene 2.0 bDNA assay, top concentration 25 μM
[4] = HepDE19 cells, Tet-free medium, 7 day-incubation, rcDNA measured by Quantigene 2.0 bDNA assay, top concentration 25 μM, read-out: DE-19 bDNA EC50

SMILES | EC50 [4] [µM] | also measured
COC(=O)NC1CCc2c1cn(C)c2C(=O)Nc1ccc(F)c(Cl)c1 (racemic) [Compound 1, methyl 1-(3-chloro-4-fluorophenylcarbamoyl)-2-methyl-2,4,5,6-tetrahydrocyclopenta[c]pyrrol-4-ylcarbamate] |  | EC50 [1]: 0.09 µM
CNC(=O)NC1CCc2c1cn(C)c2C(=O)Nc1ccc(F)c(Cl)c1 (racemic) [Compound 3, N-(3-chloro-4-fluorophenyl)-2-methyl-4-(3-methylureido)-2,4,5,6-tetrahydrocyclopenta[c]pyrrole-1-carboxamide] |  | EC50 [1]: 0.94 µM
CNC(=O)NC1CCc2c1c[nH]c2C(=O)Nc1ccc(F)c(Cl)c1 (racemic) [Compound 8, N-(3-chloro-4-fluorophenyl)-4-(3-methylureido)-2,4,5,6-tetrahydrocyclopenta[c]pyrrole-1-carboxamide] |  | EC50 [2]: 18 µM
CC(C)OC(=O)C1(COC(=O)NC2CCc3c2cn(C)c3C(=O)Nc2ccc(F)c(Cl)c2)CC(F)(F)C1 (racemic) [Compound 46, isopropyl 1-((((1-((3-chloro-4-fluorophenyl)carbamoyl)-2-methyl-2,4,5,6-tetrahydrocyclopenta[c]pyrrol-4-yl)carbamoyl)oxy)methyl)-3,3-difluorocyclobutane-1-carboxylate] |  | EC50 [2]: 2.3 µM
Cn1cc2c(c1C(=O)Nc1ccc(F)c(Cl)c1)CCC2NC(=O)OCC1(C(=O)O)CC(F)(F)C1 (racemic) [Compound 53, 1-((((1-((3-chloro-4-fluorophenyl)carbamoyl)-2-methyl-2,4,5,6-tetrahydrocyclopenta [c]pyrrol-4-yl)carbamoyl)oxy)methyl)-3,3-difluorocyclobutane-1-carboxylic acid] |  | EC50 [2]: 2.7 µM
Cn1cc2c(c1C(=O)Nc1ccc(F)c(Cl)c1)CCC2NC(=O)OCc1nc[nH]n1 (racemic) [Compound 54, (1H-1,2,4-triazol-3-yl)methyl (1-((3-chloro-4-fluorophenyl)carbamoyl)-2-methyl-2,4,5,6-tetrahydrocyclopenta[c]pyrrol-4-yl)carbamate] |  | EC50 [2]: 0.06 µM
Cn1cc2c(c1C(=O)Nc1ccc(F)c(Cl)c1)CCC2NC(=O)OCc1nn[nH]n1 (racemic) [Compound 148, (2H-tetrazol-5-yl)methyl (1-((3-chloro-4-fluorophenyl)carbamoyl)-2-methyl-2,4,5,6-tetrahydrocyclopenta[c]pyrrol-4-yl)carbamate] |  | EC50 [2]: 1.9 µM
COC(=O)NC1CCc2c1cn(C)c2C(=O)Nc1ccc(F)c(Cl)c1 (single isomer, unassigned) [Compound 4, Methyl 1-(3-chloro-4-fluorophenylcarbamoyl)-2-methyl-2,4,5,6-tetrahydrocyclopenta[c] pyrrol-4-ylcarbamate] |  | EC50 [3]: 0.05 µM
COC(=O)NC1CCc2c1cn(C)c2C(=O)Nc1ccc(F)c(Cl)c1 (single isomer, unassigned) [Compound 5, Methyl 1-(3-chloro-4-fluorophenylcarbamoyl)-2-methyl-2,4,5,6-tetrahydrocyclopenta[c] pyrrol-4-ylcarbamate] |  | EC50 [3]: 0.99 µM
CNC(=O)NC1CCc2c1c[nH]c2C(=O)Nc1ccc(F)c(Cl)c1 (single isomer, unassigned) [Compound 10, N-(3-Chloro-4-fluorophenyl)-4-(3-methylureido)-2,4,5,6-tetrahydrocyclopenta[c]pyrrole-1-carboxamide] | 16 | 
CNC(=O)NC1CCc2c1c[nH]c2C(=O)Nc1ccc(F)c(Cl)c1 (single isomer, unassigned) [Compound 11, N-(3-Chloro-4-fluorophenyl)-4-(3-methylureido)-2,4,5,6-tetrahydrocyclopenta[c]pyrrole-1-carboxamide] | 2.4 | 
Cn1cc2c(c1C(=O)Nc1ccc(F)c(Cl)c1)CCC2NS(=O)(=O)C1CC1 (single isomer, unassigned) [Compound 13, N-(3-Chloro-4-fluorophenyl)-4-(cyclopropanesulfonamido)-2-methyl-2,4,5,6-tetrahydrocyclopenta [c]pyrrole-1-carboxamide] | 6.8 | 
Cn1cc2c(c1C(=O)Nc1ccc(F)c(Cl)c1)CCC2NS(=O)(=O)C1CC1 (single isomer, unassigned) [Compound 14, N-(3-Chloro-4-fluorophenyl)-4-(cyclopropanesulfonamido)-2-methyl-2,4,5,6-tetrahydrocyclopenta [c]pyrrole-1-carboxamide] | 0.07 | 
CCn1cc2c(c1C(=O)Nc1ccc(F)c(Cl)c1)CCC2NS(=O)(=O)C1CC1 (single isomer, unassigned) [Compound 15, N-(3-Chloro-4-fluorophenyl)-4-(cyclopropanesulfonamido)-2-ethyl-2,4,5,6-tetrahydrocyclopenta[c]pyrrole-1-carboxamide] | ≥ 25 | 
CCn1cc2c(c1C(=O)Nc1ccc(F)c(Cl)c1)CCC2NS(=O)(=O)C1CC1 (single isomer, unassigned) [Compound 16, N-(3-Chloro-4-fluorophenyl)-4-(cyclopropanesulfonamido)-2-ethyl-2,4,5,6-tetrahydrocyclopenta[c]pyrrole-1-carboxamide] | 0.13 | 
CCn1cc2c(c1C(=O)Nc1ccc(F)c(Cl)c1)CCC2NC(=O)C1CC1 (single isomer, unassigned) [Compound 17, N-(3-Chloro-4-fluorophenyl)-4-(cyclopropanecarboxamido)-2-ethyl-2,4,5,6-tetrahydrocyclopenta[c]pyrrole-1-carboxamide] |  | EC50 [2]: 4.9 µM
CCn1cc2c(c1C(=O)Nc1ccc(F)c(Cl)c1)CCC2NC(=O)OCc1ncn(C)n1 (single isomer, unassigned) [Compound 19, (1-Methyl-1H-1,2,4-triazol-3-yl)methyl (1-((3-chloro-4-fluorophenyl)carbamoyl)-2-ethyl-2,4,5,6-tetrahydrocyclopenta[c]pyrrol-4-yl)carbamate] | 2.1 | 
CCn1cc2c(c1C(=O)Nc1ccc(F)c(Cl)c1)CCC2NC(=O)OCc1ncn(C)n1 (single isomer, unassigned) [Compound 20, (1-Methyl-1H-1,2,4-triazol-3-yl)methyl (1-((3-chloro-4-fluorophenyl)carbamoyl)-2-ethyl-2,4,5,6-tetrahydrocyclopenta[c]pyrrol-4-yl)carbamate] | 0.18 | 
Cn1ccc(COC(=O)NC2CCc3c2cn(C)c3C(=O)Nc2ccc(F)c(Cl)c2)n1 (single isomer, unassigned) [Compound 21, (1-Methyl-1H-pyrazol-3-yl)methyl(1-((3-chloro-4-fluorophenyl)carbamoyl)-2-methyl-2,4,5,6-tetrahydrocyclopenta[c]pyrrol-4-yl)carbamate] |  | EC50 [3]: 0.04 µM
Cn1ccc(COC(=O)NC2CCc3c2cn(C)c3C(=O)Nc2ccc(F)c(Cl)c2)n1 (single isomer, unassigned) [Compound 22, (1-Methyl-1H-pyrazol-3-yl)methyl(1-((3-chloro-4-fluorophenyl)carbamoyl)-2-methyl-2,4,5,6-tetrahydrocyclopenta[c]pyrrol-4-yl)carbamate] |  | EC50 [3]: 0.78 µM
Cn1cc2c(c1C(=O)Nc1ccc(F)c(Cl)c1)CCC2NC(=O)C1CC1 (single isomer, unassigned) [Compound 23, N-(3-Chloro-4-fluorophenyl)-4-(cyclopropanecarboxamido)-2-methyl-2,4,5,6-tetrahydrocyclopenta [c]pyrrole-1-carboxamide] | 0.12 | 
Cn1cc2c(c1C(=O)Nc1ccc(F)c(Cl)c1)CCC2NC(=O)C1CC1 (single isomer, unassigned) [Compound 24, N-(3-Chloro-4-fluorophenyl)-4-(cyclopropanecarboxamido)-2-methyl-2,4,5,6-tetrahydrocyclopenta [c]pyrrole-1-carboxamide] | 1.6 | 
Cn1cnc(COC(=O)NC2CCc3c2cn(C)c3C(=O)Nc2ccc(F)c(Cl)c2)n1 (single isomer, unassigned) [Compound 25, (1-Methyl-1H-1,2,4-triazol-3-yl)methyl (1-((3-chloro-4-fluorophenyl)carbamoyl)-2-methyl-2,4,5,6-tetrahydrocyclopenta[c]pyrrol-4-yl)carbamate] | 3.5 | 
Cn1cnc(COC(=O)NC2CCc3c2cn(C)c3C(=O)Nc2ccc(F)c(Cl)c2)n1 (single isomer, unassigned) [Compound 26, (1-Methyl-1H-1,2,4-triazol-3-yl)methyl (1-((3-chloro-4-fluorophenyl)carbamoyl)-2-methyl-2,4,5,6-tetrahydrocyclopenta[c]pyrrol-4-yl)carbamate] | 0.05 | 
